In one experiment the target is OPRK1 (Homo sapiens, UniProt P41145). Description: cAMP OPRK1 Antagonist. As to conditions: for Emax: read-out: Max response.
In another experiment the target is T1, DAT (Homo sapiens, UniProt Q01959).
T1 construct: Eurofins DiscoverX Corporation 87-1003DR; host or cells: unnamed cell lines
Nature of the experiment: Transporter DAT Blocker. The note with it: for Emax: Transporter DAT Blocker, read-out: Max response. Format: cell-based. How it is done:
After cell plating and incubation, media was removed an 25 μL of 1× compound in 1×HBSS/0.1% BSA was added. Compounds were incubated with cells for 30 min at 37° C. After compound incubation, 25 μL of 1× dye loading buffer (1× dye, 1×HBSS/20 mM HEPES) was added to the wells. Cells were incubated for 30-60 min at 37° C. After incubation, microplates were transferred to a PerkinElmer Envision™ instrument for fluorescent signal detection. […] For blocker mode assays, percentage of inhibition was calculated using the following formula: […]

A further experiment addresses T2, ROCK1 (Homo sapiens, UniProt Q13464).
T2 construct: purchased Eurofins DiscoverX Corporation 87-1003DR; host or cells: E. coli BL21-derived host (T7 phage) or HEK-293
Description: Binding (KINOMEscan) ROCK1 Inhibitor. The note with it: for IC50: read-out: RC50, result type IC50; for Emax: read-out: Max response. The method, then:
For most assays, kinase-tagged T7 phage strains were grown in parallel in 24-well blocks in an E. coli host derived from the BL21 strain. E. coli were grown to log-phase and infected with T7 phage from a frozen stock (multiplicity of infection=0.4) and incubated with shaking at 32° C. until lysis (90-150 min). The lysates were centrifuged (6,000×g) and filtered (0.2 μm) to remove cell debris. The remaining kinases were produced in HEK-293 cells and subsequently tagged with DNA for qPCR detection. Streptavidin-coated magnetic beads were treated with biotinylated small molecule ligands for 30 min at RT to generate affinity resins for kinase assays. The liganded beads were blocked with excess biotin and washed with blocking buffer (SeaBlock (Pierce), 1% BSA, 0.05% Tween 20, 1 mM DTT) to remove unbound ligand and to reduce non-specific phage binding. […] All reactions were performed in polypropylene 384-well plates in a final volume of 0.02 mL. […] The beads were then re-suspended in elution buffer (1×PBS, 0.05% Tween 20, 0.5 μM non-biotinylated affinity ligand) and incubated at RT with shaking for 30 min. The kinase concentration in the eluates was measured by qPCR.
The kinase concentration in the eluates was measured by qPCR. qPCR reactions were assembled by adding 2.5 μL of kinase eluate to 7.5 μL of qPCR master mix containing 0.15 μM amplicon primers and 0.15 μM amplicon probe. The qPCR protocol consisted of a 10 min hot start at 95° C., followed by 35 cycles of 95° C. for 15 sec, 60° C. for 1 min.
Binding constants (Kds) were calculated with a standard dose-response curve using the Hill equation: […]

Experiment [1] relates to EKP-induced epileptiform discharges in zebrafish larvae. Description: Zebrafish EKP seizure model, electrophysiology (non-invasive LFP recordings, PSD analysis). The note with it: 7 dpf larvae; for effect on EKP-induced elevated PSD (in words): 22 h; for efficacy against EKP-induced epileptiform discharges 2 μM / efficacy against EKP-induced epileptiform discharges 10 μM: 22 h incubation, mean, normalized PSD 20-90 Hz. Format: in vivo, zebrafish (Danio rerio).
Description: Non-invasive LFP recordings were measured from the midbrain (optic tectum) of 7 dpf zebrafish larvae pre-incubated with VHC only, EKP only, or compound and EKP. […] These steps occurred at 28° C., while further manipulation and electrophysiological recordings occurred at room temperature (±21° C.) and were performed as described before (16, 27). Each recording lasted 600 seconds.
A power spectral density (PSD) analysis of the recordings was performed using MatLab R2019 software (MATrix LABoratory, USA) as described in (26). The PSD estimate of each LFP recording was summed over each 10 Hz frequency band, ranging from 0 to 160 Hz. Next, the PSD estimates were normalized against the VHC control. Data are expressed as mean±SEM PSD per larva and per condition over the 20-90 Hz region. Outliers were identified via the ROUT test (Q=1%).
PSD analysis assumes that the epileptiform activity manifests as a high-power oscillation at certain frequencies (26). Thus, if epileptic activity occurs often during the recording an elevated PSD estimate should be found at the corresponding frequency band(s) (26).

For a further experiment, the target named is OPRD1 (Homo sapiens, UniProt P41143). Nature of the experiment: cAMP OPRD1 Agonist. The note with it: for Emax: read-out: Max response.
In another experiment the target is CHRM3 (Homo sapiens, UniProt P20309). Description: Calcium Flux CHRM3 Antagonist. As to conditions: for Emax: read-out: Max response.
Another experiment has as its target T3, PDE3A (Homo sapiens, UniProt Q14432).
T3 construct: purchased Signal Chem
Description: Enzymatic PDE3A Inhibitor. Format: biochemical. As to conditions: for IC50: read-out: RC50, result type IC50; for Emax: read-out: Max response. How it is done: (§1) Enzyme preparations were sourced from various vendors-AChE (R&D Systems), COX1 and COX2 (BPS Bioscience), MAOA (Sigma), PDE3A and PDE4D2 (Signal Chem). AChE: enzyme and test compound were pre-incubated for 15 min at RT before substrate addition. Acetylthiocholine and DTNB were added and incubated at RT for 30 min. Signal was detected by measuring absorbance at 405 nm. COX1 and COX2: enzyme stocks were diluted in assay buffer (40 mM Tris-HCl, 1×PBS, 0.5 mM Phenol, 0.01% Tween 20 and 10 nM Hematin) and allowed to equilibrate with compounds at RT for 30 min (binding incubation). Arachidonic acid (1.7 μM) and Ampliflu Red (2.5 μM) were prepared and dispended into a reaction plate. Plates were read immediately on a fluorimeter with the emission detection at 590 nm and excitation wavelength 544 nm. MAOA: enzyme and test compound were pre-incubated for 15 min at 37° C. before substrate addition. The reaction was initiated by addition of kynuramine and incubated at 37° C. for 30 min. The reaction was terminated by addition of NaOH. The amount of 4-hydroquinoline formed was determined through spectrofluorometric readout with the emission detection at 380 nm and excitation wavelength 310 nm. PDE3A and PDE4D2: enzyme and test compound were pre-incubated for 15 min at RT before substrate addition. cAMP substrate (at a concentration equal to EC80) was added and incubated at RT for 30 min. Enzyme reaction was terminated by addition of 9 mM IBMX. Signal was detected using the HitHunter® cAMP detection kit. Microplates were transferred to a PerkinElmer Envision™ instrument and read out as described for each assay. […] For enzyme activity assays, percentage inhibition was calculated using the following equation: […]

A further experiment addresses HTR2A (Homo sapiens, UniProt P28223). Description: Calcium Flux HTR2A Agonist. The note with it: for Emax: read-out: Max response.
For the next experiment, the target named is T4, PDE4D2 (Homo sapiens, UniProt Q08499).
T4 construct: purchased Signal Chem
Description: Enzymatic PDE4D2 Inhibitor. The note with it: for IC50: read-out: RC50, result type IC50; for Emax: read-out: Max response. The class given is biochemical. The method, then: as §1

The term IC50 denotes the concentration that inhibits the measured activity by half. Broadly, the EC50 is the concentration at which the effect is half-maximal.

Read-outs that look alike come from different tables or passages of the source. Bounds are passed on as bounds.

T1 sequence (Q01959 whole entry): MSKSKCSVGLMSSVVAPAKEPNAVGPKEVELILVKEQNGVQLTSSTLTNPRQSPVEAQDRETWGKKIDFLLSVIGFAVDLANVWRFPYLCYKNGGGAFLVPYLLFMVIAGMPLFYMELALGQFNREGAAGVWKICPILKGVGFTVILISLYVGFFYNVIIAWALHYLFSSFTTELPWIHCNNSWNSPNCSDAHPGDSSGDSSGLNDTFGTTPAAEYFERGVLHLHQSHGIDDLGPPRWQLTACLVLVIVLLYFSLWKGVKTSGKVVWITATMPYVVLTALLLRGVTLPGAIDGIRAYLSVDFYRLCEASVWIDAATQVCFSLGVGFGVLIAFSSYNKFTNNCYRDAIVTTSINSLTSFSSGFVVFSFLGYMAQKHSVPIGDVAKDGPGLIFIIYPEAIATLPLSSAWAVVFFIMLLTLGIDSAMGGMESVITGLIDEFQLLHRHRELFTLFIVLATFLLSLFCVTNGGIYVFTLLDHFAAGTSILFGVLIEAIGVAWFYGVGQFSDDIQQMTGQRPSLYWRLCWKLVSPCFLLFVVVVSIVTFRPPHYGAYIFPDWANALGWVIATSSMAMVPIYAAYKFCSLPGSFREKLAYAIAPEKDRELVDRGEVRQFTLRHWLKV
Sequence of HTR2A (P28223 whole entry): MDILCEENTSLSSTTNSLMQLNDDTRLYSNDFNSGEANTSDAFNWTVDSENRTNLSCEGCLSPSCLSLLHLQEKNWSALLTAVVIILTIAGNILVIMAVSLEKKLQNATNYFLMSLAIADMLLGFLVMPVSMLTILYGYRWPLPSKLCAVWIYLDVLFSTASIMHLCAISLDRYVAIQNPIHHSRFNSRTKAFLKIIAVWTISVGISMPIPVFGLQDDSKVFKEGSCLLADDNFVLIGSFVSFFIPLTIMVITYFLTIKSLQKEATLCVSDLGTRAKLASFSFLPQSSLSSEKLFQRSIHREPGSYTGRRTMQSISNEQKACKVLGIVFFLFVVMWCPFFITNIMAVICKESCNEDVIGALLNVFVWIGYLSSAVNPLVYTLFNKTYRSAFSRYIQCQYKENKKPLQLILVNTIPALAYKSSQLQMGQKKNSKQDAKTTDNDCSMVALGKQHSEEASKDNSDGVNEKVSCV
T3 sequence (Q14432 whole entry): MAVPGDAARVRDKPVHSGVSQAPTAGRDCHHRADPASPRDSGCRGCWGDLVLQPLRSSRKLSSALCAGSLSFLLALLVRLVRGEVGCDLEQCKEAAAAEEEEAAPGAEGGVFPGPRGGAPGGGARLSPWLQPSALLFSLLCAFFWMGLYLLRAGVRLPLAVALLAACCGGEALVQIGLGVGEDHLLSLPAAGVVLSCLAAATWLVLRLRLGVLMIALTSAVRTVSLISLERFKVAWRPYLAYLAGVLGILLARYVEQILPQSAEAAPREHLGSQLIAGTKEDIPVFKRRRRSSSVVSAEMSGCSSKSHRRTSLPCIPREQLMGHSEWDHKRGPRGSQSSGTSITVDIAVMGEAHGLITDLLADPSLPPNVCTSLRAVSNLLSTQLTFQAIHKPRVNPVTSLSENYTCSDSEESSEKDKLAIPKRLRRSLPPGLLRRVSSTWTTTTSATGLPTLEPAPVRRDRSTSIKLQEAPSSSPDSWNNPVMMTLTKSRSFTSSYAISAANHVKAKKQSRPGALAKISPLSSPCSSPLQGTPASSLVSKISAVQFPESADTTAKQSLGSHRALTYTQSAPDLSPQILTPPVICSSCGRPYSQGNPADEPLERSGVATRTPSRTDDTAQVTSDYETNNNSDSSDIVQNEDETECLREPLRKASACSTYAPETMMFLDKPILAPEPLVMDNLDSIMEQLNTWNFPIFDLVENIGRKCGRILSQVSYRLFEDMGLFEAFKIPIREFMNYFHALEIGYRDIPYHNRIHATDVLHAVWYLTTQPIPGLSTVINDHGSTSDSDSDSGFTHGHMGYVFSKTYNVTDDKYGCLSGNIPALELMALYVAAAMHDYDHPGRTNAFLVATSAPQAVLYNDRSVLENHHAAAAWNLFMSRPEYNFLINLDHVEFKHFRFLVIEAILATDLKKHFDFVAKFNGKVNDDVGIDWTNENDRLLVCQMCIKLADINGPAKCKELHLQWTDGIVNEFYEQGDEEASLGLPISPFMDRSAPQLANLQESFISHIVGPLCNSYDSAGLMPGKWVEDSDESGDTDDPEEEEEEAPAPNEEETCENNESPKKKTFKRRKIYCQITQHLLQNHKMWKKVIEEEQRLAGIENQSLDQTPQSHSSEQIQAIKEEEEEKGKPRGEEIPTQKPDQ
T2 sequence (Q13464 whole entry): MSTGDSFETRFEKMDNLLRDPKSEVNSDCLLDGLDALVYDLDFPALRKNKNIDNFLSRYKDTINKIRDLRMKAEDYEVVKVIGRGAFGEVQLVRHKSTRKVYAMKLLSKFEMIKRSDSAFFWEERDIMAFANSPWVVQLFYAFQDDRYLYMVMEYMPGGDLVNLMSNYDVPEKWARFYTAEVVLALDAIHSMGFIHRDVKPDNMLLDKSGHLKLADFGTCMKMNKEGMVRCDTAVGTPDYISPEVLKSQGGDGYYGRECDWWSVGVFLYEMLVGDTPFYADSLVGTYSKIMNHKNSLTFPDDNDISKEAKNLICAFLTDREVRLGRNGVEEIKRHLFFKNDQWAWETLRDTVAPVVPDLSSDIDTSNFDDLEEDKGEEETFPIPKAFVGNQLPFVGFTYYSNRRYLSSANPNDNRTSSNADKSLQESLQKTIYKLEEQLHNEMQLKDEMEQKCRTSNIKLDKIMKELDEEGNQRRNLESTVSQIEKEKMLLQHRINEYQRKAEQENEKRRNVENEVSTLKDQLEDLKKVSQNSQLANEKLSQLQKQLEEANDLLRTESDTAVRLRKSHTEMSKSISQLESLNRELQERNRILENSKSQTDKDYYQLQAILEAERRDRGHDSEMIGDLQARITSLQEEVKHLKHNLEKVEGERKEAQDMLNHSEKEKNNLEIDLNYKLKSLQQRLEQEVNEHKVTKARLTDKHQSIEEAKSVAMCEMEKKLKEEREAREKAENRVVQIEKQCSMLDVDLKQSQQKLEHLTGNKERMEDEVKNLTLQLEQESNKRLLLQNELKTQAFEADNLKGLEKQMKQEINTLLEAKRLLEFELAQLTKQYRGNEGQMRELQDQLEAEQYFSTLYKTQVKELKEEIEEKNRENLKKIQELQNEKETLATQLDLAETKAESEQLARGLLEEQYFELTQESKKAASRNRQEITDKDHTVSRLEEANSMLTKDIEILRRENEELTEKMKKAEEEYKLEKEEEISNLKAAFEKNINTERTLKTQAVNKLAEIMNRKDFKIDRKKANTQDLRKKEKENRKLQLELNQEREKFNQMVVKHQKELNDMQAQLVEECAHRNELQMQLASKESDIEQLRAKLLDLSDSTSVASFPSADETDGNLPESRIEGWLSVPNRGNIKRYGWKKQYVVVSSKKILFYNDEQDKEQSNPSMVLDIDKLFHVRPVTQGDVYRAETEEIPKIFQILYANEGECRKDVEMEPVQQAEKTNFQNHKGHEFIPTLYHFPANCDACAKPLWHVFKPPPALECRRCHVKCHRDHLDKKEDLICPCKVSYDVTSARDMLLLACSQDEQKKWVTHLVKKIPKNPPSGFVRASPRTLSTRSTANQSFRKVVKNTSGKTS
Sequence of OPRK1 (P41145 whole entry): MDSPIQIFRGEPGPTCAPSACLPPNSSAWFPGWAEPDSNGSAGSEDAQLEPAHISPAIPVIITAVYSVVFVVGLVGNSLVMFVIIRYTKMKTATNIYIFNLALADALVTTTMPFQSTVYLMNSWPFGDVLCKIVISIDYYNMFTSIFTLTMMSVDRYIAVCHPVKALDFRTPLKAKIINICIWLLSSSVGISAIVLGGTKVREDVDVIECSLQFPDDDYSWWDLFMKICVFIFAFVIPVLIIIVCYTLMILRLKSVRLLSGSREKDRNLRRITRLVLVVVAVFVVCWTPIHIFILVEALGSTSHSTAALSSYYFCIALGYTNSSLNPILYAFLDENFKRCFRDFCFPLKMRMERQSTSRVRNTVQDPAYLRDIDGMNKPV
T4 sequence (Q08499 303-809 limits assumed): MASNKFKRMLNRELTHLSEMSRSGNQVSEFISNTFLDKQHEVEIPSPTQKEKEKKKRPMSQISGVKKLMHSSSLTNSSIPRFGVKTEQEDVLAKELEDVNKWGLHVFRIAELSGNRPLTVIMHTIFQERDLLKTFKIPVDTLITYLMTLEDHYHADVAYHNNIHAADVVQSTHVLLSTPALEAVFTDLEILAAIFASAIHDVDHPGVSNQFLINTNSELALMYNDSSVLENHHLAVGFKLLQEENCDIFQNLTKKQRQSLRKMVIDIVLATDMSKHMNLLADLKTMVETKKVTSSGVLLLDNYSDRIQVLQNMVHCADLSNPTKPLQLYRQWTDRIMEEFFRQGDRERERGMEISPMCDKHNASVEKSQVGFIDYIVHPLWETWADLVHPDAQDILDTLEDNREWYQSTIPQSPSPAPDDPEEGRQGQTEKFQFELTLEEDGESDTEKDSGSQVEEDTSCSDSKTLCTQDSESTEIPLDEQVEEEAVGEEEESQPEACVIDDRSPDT
Sequence of OPRD1 (P41143 whole entry): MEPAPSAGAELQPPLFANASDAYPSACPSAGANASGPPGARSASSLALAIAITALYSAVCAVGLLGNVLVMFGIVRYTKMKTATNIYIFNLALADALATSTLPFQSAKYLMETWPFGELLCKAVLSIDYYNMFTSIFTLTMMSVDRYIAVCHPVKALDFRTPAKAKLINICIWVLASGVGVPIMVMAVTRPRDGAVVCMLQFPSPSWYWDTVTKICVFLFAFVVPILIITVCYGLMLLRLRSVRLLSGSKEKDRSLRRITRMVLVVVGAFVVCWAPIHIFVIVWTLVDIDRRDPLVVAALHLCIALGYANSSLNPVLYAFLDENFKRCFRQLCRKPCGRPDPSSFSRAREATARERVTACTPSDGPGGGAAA
Description for CHRM3: (§2) In vitro pharmacological profiling of compounds was done against 78 functional assays for 47 common off-targets (30) by Eurofins DiscoverX Corporation (Fremont, CA, USA) using their SAFETYscan E/IC50 ELECT service (Cat Ref 87-1003DR, Safety47 Panel Dose Response). […] Compounds were tested in a range of 10 concentrations, following a 3-fold serial dilution, starting from 10 μM. The assays were performed utilizing the PathHunter enzyme fragment complementation (EFC) technology, FLIPR®-based cellular screening assays, and KINOMEscan kinase binding assays.
(§3) Prior to testing, cells (10,000 cells/well) were expanded from freezer stocks and seeded into a total volume of 50 μL into black walled, clear-bottom, Poly-D-lysine coated 384-well microplates and incubated at 37° C. […] Assays were performed in 1× dye loading buffer consisting of 1× Dye (DiscoverX, Calcium No Wash^PLUS kit, Catalog No. 90-0091), 1× Additive A and 2.5 mM Probenecid in HBSS/20 mM HEPES. Probenecid was prepared fresh. Prior to testing, media was aspirated from cells and replaced with 25 μL dye loading buffer. Cells were incubated for 45 min at 37° C. and then 20 min at RT. For agonist determination, 25 μL of 2× compound in HBSS/20 mM HEPES was added using a FLIPR Tetra (MDS). For antagonist determination, cells were pre-incubated with sample followed by agonist challenge at the EC80 concentration. 25 μL of 2× sample was added and cells were incubated for 30 min at RT in the dark to equilibrate plate temperature. After incubation, antagonist determination was initiated by addition of 25 μL of 1× compound with 3×EC80 agonist using FLIPR. For both agonist and antagonist formats, activity was measure on a FLIPR Tetra (MDS). Calcium mobilization was monitored for 2 min with a 5 sec baseline read.
(§4) FLIPR read—Area under the curve, was calculated for the entire 2 min read. Compound activity was analysed using CBIS data analysis suite (ChemInnovation, CA).
Description for HTR2A: as §2, §3, §4
Description for OPRD1: In vitro pharmacological profiling of compounds was done against 78 functional assays for 47 common off-targets (30) by Eurofins DiscoverX Corporation (Fremont, CA, USA) using their SAFETYscan E/IC50 ELECT service (Cat Ref 87-1003DR, Safety47 Panel Dose Response). […] Compounds were tested in a range of 10 concentrations, following a 3-fold serial dilution, starting from 10 μM.
cAMP Hunter cell lines were expanded from freezer stocks. Prior to testing, cells were seeded in a total volume of 20 μL into white walled 384-well microplates and incubated at 37° C. cAMP modulation was determined using the DiscoverX HitHunter cAMP XS+ assay. For Gs agonist determination, cells were incubated with sample to induce response. For Gi agonist determination, cells were incubated with sample in the presence of EC80 forskolin to induce response. For both conditions, media was aspirated from cells and replaced with 15 μL 2:1 HBSS/10 mM HEPES:cAMP XS+ Ab reagent. Intermediate dilution of sample stocks was performed to generate 4× sample in assay buffer (containing 4×EC80 forskolin in the case of antagonist determination). 5 μL of 4× sample was added to cells and incubated at 37° C. or room temperature (RT) for 30 or 60 min. Final assay vehicle concentration was 1%. For antagonist determination, cells were pre-incubated with sample followed by agonist challenge at the EC80 concentration. Media was aspirated from cells and replaced with 10 μL 1:1 HBSS/HEPES:cAMP XS+ Ab reagent. 5 μL of 4× compound was added to the cells and incubated at 37° C. or RT for 30 min. 5 μL of 4×EC80 agonist was added to the cells and incubated at 37° C. or RT for 30 or 60 min. For Gi coupled GPCRs, EC80 forskolin was included. […] Microplates were read following signal generation with a PerkinElmer Envision™ instrument for chemiluminescent signal detection. Compound activity was analyzed using CBIS data analysis suite (ChemInnovation, CA).
Description for OPRK1: as §2
cAMP Hunter cell lines were expanded from freezer stocks. Prior to testing, cells were seeded in a total volume of 20 μL into white walled 384-well microplates and incubated at 37° C. cAMP modulation was determined using the DiscoverX HitHunter cAMP XS+ assay. For Gs agonist determination, cells were incubated with sample to induce response. For Gi agonist determination, cells were incubated with sample in the presence of EC80 forskolin to induce response. For both conditions, media was aspirated from cells and replaced with 15 μL 2:1 HBSS/10 mM HEPES:cAMP XS+ Ab reagent. Intermediate dilution of sample stocks was performed to generate 4× sample in assay buffer (containing 4×EC80 forskolin in the case of antagonist determination). 5 μL of 4× sample was added to cells and incubated at 37° C. or room temperature (RT) for 30 or 60 min. Final assay vehicle concentration was 1%. For antagonist determination, cells were pre-incubated with sample followed by agonist challenge at the EC80 concentration. Media was aspirated from cells and replaced with 10 μL 1:1 HBSS/HEPES:cAMP XS+ Ab reagent. 5 μL of 4× compound was added to the cells and incubated at 37° C. or RT for 30 min. 5 μL of 4×EC80 agonist was added to the cells and incubated at 37° C. or RT for 30 or 60 min. For Gi coupled GPCRs, EC80 forskolin was included. […] Microplates were read following signal generation with a PerkinElmer Envision™ instrument for chemiluminescent signal detection. Compound activity was analyzed using CBIS data analysis suite (ChemInnovation, CA). For Gs agonist mode assays, percentage activity was calculated using the following equation:

`CC(C)(C)c1ccc(C#CC(O)c2ccccc2)cc1` (racemic) [Compound 3.3, rac-3-(4-(tert-butyl)phenyl)-1-phenylprop-2-yn-1-ol]: the IC50 against OPRK1, at DAT, at ROCK1 (Binding ROCK1 Inhibitor), at CHRM3, on PDE3A (Enzymatic PDE3A Inhibitor) and at PDE4D2 (Enzymatic PDE4D2 Inhibitor) was over 10 µM in each case. For the same compound, the Emax on OPRK1 was found to be 8.9%; at DAT, 0%; at ROCK1, 0%; on OPRD1 it was 3.6%; on CHRM3 it was 0%; at PDE3A it was 0.6%. Besides, the Emax at HTR2A and on PDE4D2 was 0% each time. The results for the “effect on EKP-induced elevated PSD (in words)” value in experiment [1] (2 μM) and in experiment [1] (10 μM) were “remained effective” and “significant decrease”, respectively. Besides, in [1] (2 μM), the “efficacy against EKP-induced epileptiform discharges 2 μM” value was determined as 54%. The “efficacy against EKP-induced epileptiform discharges 10 μM” value in [1] (10 μM) is 82%. Further, the EC50 on OPRD1 and on HTR2A was over 10 µM throughout.
With `Clc1cccc(C#Cc2n[nH]c3ncccc23)c1` [Compound 10.1, 3-((3-chlorophenyl)ethynyl)-1H-pyrazolo[3,4-b]pyridine], the IC50 on OPRK1, on DAT, on ROCK1 (Binding ROCK1 Inhibitor), on CHRM3, at PDE3A (Enzymatic PDE3A Inhibitor) and on PDE4D2 (Enzymatic PDE4D2 Inhibitor) was over 10 µM throughout. The Emax on OPRK1 worked out at 0%; on DAT it was 33.1%; on ROCK1 (Binding ROCK1 Inhibitor), 4.2%; at OPRD1, 12.1%; at CHRM3 it was 0%; on PDE3A (Enzymatic PDE3A Inhibitor), 0.1%. For the same compound, the Emax on HTR2A was determined as 0%; on PDE4D2 (Enzymatic PDE4D2 Inhibitor) it was 2.7%. Besides, the “effect on EKP-induced elevated PSD (in words)” value in experiment [1] (2 μM) is given as “did not”; in experiment [1] (10 μM), “significant decrease”. In experiment [1] (2 μM), the “efficacy against EKP-induced epileptiform discharges 2 μM” value is −30%. In experiment [1] (10 μM), the “efficacy against EKP-induced epileptiform discharges 10 μM” value was determined as 77%. The EC50 on OPRD1 and on HTR2A was over 10 µM throughout.

For the origin of these results see patent US20250186408A1, “TREATMENT OF PHARMACORESISTANT EPILEPSY” (Katholieke Universiteit Leuven, priority 2021, published 2025).
